What all share (assay type): biochemical
For experiment [1], the target named is T1, human JAK1 (a.a. 837-1142) (Homo sapiens, UniProt P23458).
T1 construct: human JAK1 (a.a. 837-1142); His tag (N); made in house; host or cells: insect cells (baculovirus)
Put plainly: In vitro JAK kinase assay (HTRF, phosphorylation of a biotinylated peptide), JAK1. The settings on record: read-out: JAK1 IC50. The method, boiled down: (§1)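 Kinase reactions ran at room temperature for 1 h with ATP matched per isoform (JAK1 90 μM, JAK2 30 μM, JAK3 3 μM). After an EDTA stop, the phosphorylated biotin-peptide was read by HTRF using Eu-Py20 and SA-APC after 40 min binding.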
A general note: In TR-FRET formats the signal depends on donor and acceptor labels being close together.

Experiment [2] deals with T2, human JAK2 (a.a. 828-1132) (Homo sapiens, UniProt O60674).
T2 construct: JAK2 (a.a. 828-1132); His tag (N); made in house; host or cells: insect cells (baculovirus)
Briefly: In vitro JAK kinase assay (HTRF, phosphorylation of a biotinylated peptide), JAK2. In a few lines:
as §1

For experiment [3], the target named is T3, human JAK3 (a.a. 781-1124) (Homo sapiens, UniProt P52333).
T3 construct: JAK3 (a.a. 781-1124); His tag (N); made in house; host or cells: insect cells (baculovirus)
Briefly: In vitro JAK kinase assay (HTRF, phosphorylation of a biotinylated peptide), JAK3. The protocol:
The catalytic activity of JAK1, JAK2 or JAK3 was assayed by measuring the phosphorylation of a biotinylated peptide. The phosphorylated peptide was detected by homogenous time resolved fluorescence (HTRF). […] The ATP concentration in the reactions was 90 μM for JAK1, 30 μM for JAK2 and 3 μM for JAK3. Reactions were carried out at room temperature for 1 hr and then stopped with 20 μL 45 mM EDTA, 300 nM SA-APC, 6 nM Eu-Py20 in assay buffer (Perkin Elmer, Boston, Mass.). Binding to the Europium labeled antibody took place for 40 minutes and HTRF signal was measured on a Fusion plate reader (Perkin Elmer, Boston, Mass.).
The catalytic activity of JAK1, JAK2 or JAK3 was assayed by measuring the phosphorylation of a biotinylated peptide. The phosphorylated peptide was detected by homogenous time resolved fluorescence (HTRF). […] Reactions were carried out at room temperature for 1 hr and then stopped with 20 μL 45 mM EDTA, 300 nM SA-APC, 6 nM Eu-Py20 in assay buffer (Perkin Elmer, Boston, Mass.). Binding to the Europium labeled antibody took place for 40 minutes and HTRF signal was measured on a Fusion plate reader (Perkin Elmer, Boston, Mass.).

The target in experiment [4] is TYK2 (Homo sapiens, UniProt P29597). Briefly: TYK2 kinase inhibition (Table A1).

The structures appear in SMILES notation. Structures can show the parent of a compound that is named as a salt. Where two headings read alike, the source gives them in different places.

Sequence of TYK2 (P29597 whole entry): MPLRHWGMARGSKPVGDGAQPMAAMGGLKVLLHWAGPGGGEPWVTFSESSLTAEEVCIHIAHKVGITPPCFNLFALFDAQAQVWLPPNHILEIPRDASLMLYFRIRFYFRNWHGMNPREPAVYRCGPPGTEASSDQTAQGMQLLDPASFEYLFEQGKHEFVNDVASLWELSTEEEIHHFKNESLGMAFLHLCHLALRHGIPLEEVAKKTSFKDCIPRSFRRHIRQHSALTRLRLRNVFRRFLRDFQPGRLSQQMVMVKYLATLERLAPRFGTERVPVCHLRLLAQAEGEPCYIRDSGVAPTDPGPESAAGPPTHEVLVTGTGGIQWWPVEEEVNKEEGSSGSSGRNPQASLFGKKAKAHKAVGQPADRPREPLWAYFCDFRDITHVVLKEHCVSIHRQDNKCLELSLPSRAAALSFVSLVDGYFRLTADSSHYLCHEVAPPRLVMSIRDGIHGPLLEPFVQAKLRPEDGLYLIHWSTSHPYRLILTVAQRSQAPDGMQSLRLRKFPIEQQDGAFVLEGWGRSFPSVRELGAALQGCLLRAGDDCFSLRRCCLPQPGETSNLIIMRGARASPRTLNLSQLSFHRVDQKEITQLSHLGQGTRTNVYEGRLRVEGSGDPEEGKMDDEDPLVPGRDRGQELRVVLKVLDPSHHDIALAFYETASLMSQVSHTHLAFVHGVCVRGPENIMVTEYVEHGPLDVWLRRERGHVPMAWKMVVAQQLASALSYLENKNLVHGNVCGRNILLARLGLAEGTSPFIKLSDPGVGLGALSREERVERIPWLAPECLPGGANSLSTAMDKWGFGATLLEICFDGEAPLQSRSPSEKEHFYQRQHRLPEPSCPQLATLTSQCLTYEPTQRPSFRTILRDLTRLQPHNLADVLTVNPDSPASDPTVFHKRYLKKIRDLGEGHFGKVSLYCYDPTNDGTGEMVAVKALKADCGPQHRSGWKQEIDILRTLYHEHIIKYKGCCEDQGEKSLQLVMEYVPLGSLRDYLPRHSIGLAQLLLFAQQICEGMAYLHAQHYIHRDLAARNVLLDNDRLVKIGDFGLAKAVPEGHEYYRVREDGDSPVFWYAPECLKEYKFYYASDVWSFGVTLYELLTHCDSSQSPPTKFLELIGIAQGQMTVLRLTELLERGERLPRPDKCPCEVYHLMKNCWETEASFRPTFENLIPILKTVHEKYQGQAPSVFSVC
T2 sequence (O60674 828-1132): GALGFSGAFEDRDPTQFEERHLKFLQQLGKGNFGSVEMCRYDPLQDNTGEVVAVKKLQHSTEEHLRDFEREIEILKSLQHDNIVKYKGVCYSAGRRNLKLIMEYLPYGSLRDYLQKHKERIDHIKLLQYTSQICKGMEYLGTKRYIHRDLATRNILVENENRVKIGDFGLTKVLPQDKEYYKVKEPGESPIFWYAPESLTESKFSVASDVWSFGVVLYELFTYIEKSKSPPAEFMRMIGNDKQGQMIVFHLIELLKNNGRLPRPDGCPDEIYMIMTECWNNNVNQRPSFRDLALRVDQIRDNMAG
T1 sequence (P23458 849-1154): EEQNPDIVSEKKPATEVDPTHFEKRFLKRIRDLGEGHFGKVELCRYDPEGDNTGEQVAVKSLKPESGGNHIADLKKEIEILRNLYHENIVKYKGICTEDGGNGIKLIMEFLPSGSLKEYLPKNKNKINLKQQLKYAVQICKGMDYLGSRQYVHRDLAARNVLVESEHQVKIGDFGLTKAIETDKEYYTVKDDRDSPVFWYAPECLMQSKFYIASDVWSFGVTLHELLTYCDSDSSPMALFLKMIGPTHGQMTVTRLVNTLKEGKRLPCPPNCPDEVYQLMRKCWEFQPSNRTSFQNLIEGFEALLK
T3 sequence (P52333 781-1124): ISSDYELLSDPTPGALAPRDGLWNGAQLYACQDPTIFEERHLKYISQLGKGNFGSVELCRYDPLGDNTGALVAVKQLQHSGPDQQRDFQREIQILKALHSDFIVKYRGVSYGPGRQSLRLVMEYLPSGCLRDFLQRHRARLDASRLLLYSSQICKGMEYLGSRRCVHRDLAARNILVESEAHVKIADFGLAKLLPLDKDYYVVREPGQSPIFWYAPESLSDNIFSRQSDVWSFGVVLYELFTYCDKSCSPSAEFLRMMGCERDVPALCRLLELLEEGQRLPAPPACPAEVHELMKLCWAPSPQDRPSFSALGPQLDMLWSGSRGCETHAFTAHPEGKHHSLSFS

The term IC50 denotes the concentration needed to halve the response being measured. On to `COc1ccc2cc1Nc1nc(ncc1Cl)Nc1cccc(c1)CC2` [Example A25, 6-Chloro-10-methoxy-2,4,8,22-tetraazatetracyclo[14.3.1.1(3,7).1(9,13)]docosa-1(20),3(22),4,6,9(21),10,12,16,18-nonaene trifluoroacetate], for which the IC50 in experiment [1] (method AA1 (90 μM ATP) or AA2 (1000 μM ATP), not stated per value) was found to be 38 nM; in experiment [2] (method AA1 (30 μM ATP) or AA2 (1000 μM ATP), not stated per value), 21 nM; in experiment [3] (method AA1 (3 μM ATP) or AA2 (1000 μM ATP), not stated per value), 14 nM; in experiment [4], 122 nM.
`Cc1cc(C(=O)N2CCC(CCNc3ccc4cc3CCc3cncc(c3)Nc3ncc(Cl)c(n3)N4)CC2)no1` [Example D218, 6-Chloro-N-(2-{1-[(5-methylisoxazol-3-yl)carbonyl]piperidin-4-yl}ethyl)-2,4,8,18,22-pentaazatetracyclo[14.3.1.1(3,7).1(9,13)]docosa-1(20),3(22),4,6,9(21),10,12,16,18-nonaen-12-amine tris(trifluoroacetate)]: the IC50 was 13 nM in experiment [1] (Table D1), 64 nM in experiment [2] (Table D1), greater than 400 nM in experiment [3] (Table D1) and 46 nM in experiment [4] (Table D1).
As for `O=C(c1cccnc1Cl)N1CCC(CCOc2ccc3cc2CCc2cncc(c2)Nc2ncc(Cl)c(n2)N3)CC1` [Example D179, 6-Chloro-12-(2-{1-[(2-chloropyridin-3-yl)carbonyl]piperidin-4-yl}ethoxy)-2,4,8,18,22-pentaazatetracyclo[14.3.1.1(3,7).1(9,13)]docosa-1(20),3(22),4,6,9(21),10,12,16,18-nonaene tris(trifluoroacetate)], the IC50 in experiment [1] (Table D1) was 226 nM; in experiment [2] (Table D1), greater than 400 nM; in experiment [3] (Table D1), greater than 400 nM; in experiment [4] (Table D1), greater than 400 nM.
On to `CS(=O)(=O)N1CC(CC(=O)Nc2ccc3cc2CCc2cncc(c2)Nc2ncc(Cl)c(n2)N3)C1` [Example D146, N-[6-Chloro-2,4,8,18,22-pentaazatetracyclo[14.3.1.1(3,7).1(9,13)]docosa-1(20),3(22),4,6,9(21),10,12,16,18-nonaen-12-yl]-2-[1-(methylsulfonyl)azetidin-3-yl]acetamide bis(trifluoroacetate)], for which the concentration for half-maximal inhibition (IC50) in experiment [1] (Table D1) was 24 nM; in experiment [2] (Table D1), 149 nM; in experiment [3] (Table D1), greater than 1000 nM; in experiment [4] (Table D1) it was 270 nM.
On the same counts, the results for `O=C(C[C@H]1CCCN(C(=O)Nc2ccccc2)C1)Nc1ccc2cc1CCc1cccc(c1)Nc1ncc(Cl)c(n1)N2` [Example D197, (3R)-3-(2-{[6-Chloro-2,4,8,22-tetraazatetracyclo[14.3.1.1(3,7).1(9,13)]docosa-1(20),3(22),4,6,9(21),10,12,16,18-nonaen-12-yl]amino}-2-oxoethyl)-N-phenylpiperidine-1-carboxamide trifluoroacetate] are 16 nM, 9 nM, 44 nM and 34 nM.
Take `O=C(Cn1c(=O)oc2c3cc(cc21)Nc1nc(ncc1Cl)Nc1cccc(c1)CC3)N1CCOCC1` [Example D187, 4-Chloro-20-(2-morpholin-4-yl-2-oxoethyl)-18-oxa-2,6,8,20,25-pentaazapentacyclo[14.6.1.1(3,7).1(9,13).0(17,21)]pentacosa-1(23),3(25),4,6,9(24),10,12,16,21-nonaen-19-one trifluoroacetate]: the IC50 is 200 nM in experiment [1] (Table D1), 185 nM in experiment [2] (Table D1), 130 nM in experiment [3] (Table D1) and greater than 1000 nM in experiment [4] (Table D1).
Turning to `Cc1[nH]c2ccccc2c1CC(=O)Nc1ccc2cc1CCc1cccc(c1)Nc1ncc(Cl)c(n1)N2` [Example C34, N-[6-Chloro-2,4,8,22-tetraazatetracyclo[14.3.1.1(3,7).1(9,13)]docosa-1(20),3(22),4,6,9(21),10,12,16,18-nonaen-12-yl]-2-(2-methyl-1H-indol-3-yl)acetamide trifluoroacetate], the IC50 in experiment [1] was determined as 265 nM; in experiment [2], 178 nM; in experiment [3] it was 4000 nM; in experiment [4], 775 nM.
`Cc1nc(CC(=O)Nc2ccc3cc2CCc2cccc(c2)Nc2ncc(Cl)c(n2)N3)c(C)s1` [Example C46, N-[6-Chloro-2,4,8,22-tetraazatetracyclo[14.3.1.1(3,7).1(9,13)]docosa-1(20),3(22),4,6,9(21),10,12,16,18-nonaen-12-yl]-2-(2,5-dimethyl-1,3-thiazol-4-yl)acetamide trifluoroacetate]: the IC50 in experiment [1] turned out to be 79 nM; in experiment [2], 170 nM; in experiment [3], 1490 nM; in experiment [4], 165 nM.
For `Clc1cnc2nc1Nc1ccc(NCCC3CCNCC3)c(c1)CCc1cncc(c1)N2` [Example D216, 6-Chloro-N-(2-piperidin-4-ylethyl)-2,4,8,18,22-pentaazatetracyclo[14.3.1.1(3,7).1(9,13)]docosa-1(20),3(22),4,6,9(21),10,12,16,18-nonaen-12-amine tetrakis(trifluoroacetate)], the half-inhibitory concentration (IC50) was 23 nM in experiment [1] (Table D1), 276 nM in experiment [2] (Table D1), greater than 400 nM in experiment [3] (Table D1) and 300 nM in experiment [4] (Table D1).
Turning to `O=C(Nc1ccccc1)N1CCC(COc2ccc3cc2CCc2cncc(c2)Nc2ncc(Cl)c(n2)N3)CC1` [Example D228, 4-({[6-Chloro-2,4,8,18,22-pentaazatetracyclo[14.3.1.1(3,7).1(9,13)]docosa-1(20),3(22),4,6,9(21),10,12,16,18-nonaen-12-yl]oxy}methyl)-N-phenylpiperidine-1-carboxamide bis(trifluoroacetate)], the IC50 in experiment [1] (Table D1) is greater than 400 nM; in experiment [2] (Table D1), 371 nM; in experiment [3] (Table D1), greater than 400 nM; in experiment [4] (Table D1) it was greater than 400 nM.
In the case of `CC(=O)N1CCC(Nc2ccc3cc2CCc2cncc(c2)Nc2ncc(Cl)c(n2)N3)CC1` [Example D158, N-(1-Acetylpiperidin-4-yl)-6-chloro-2,4,8,18,22-pentaazatetracyclo[14.3.1.1(3,7).1(9,13)]docosa-1(20),3(22),4,6,9(21),10,12,16,18-nonaen-12-amine tris(trifluoroacetate)], the IC50 in experiment [1] (Table D1) is 150 nM; in experiment [2] (Table D1), greater than 400 nM; in experiment [3] (Table D1), greater than 400 nM; in experiment [4] (Table D1), greater than 400 nM.
For the compound `Cc1cc(C(=O)N2CC(CC(=O)Nc3ccc4cc3CCc3cncc(c3)Nc3ncc(Cl)c(n3)N4)C2)no1` [Example D143, N-[6-Chloro-2,4,8,18,22-pentaazatetracyclo[14.3.1.1(3,7).1(9,13)]docosa-1(20),3(22),4,6,9(21),10,12,16,18-nonaen-12-yl]-2-{1-[(5-methylisoxazol-3-yl)carbonyl]azetidin-3-yl}acetamide bis(trifluoroacetate)], the IC50 was 26 nM in experiment [1] (Table D1), 132 nM in experiment [2] (Table D1), greater than 1000 nM in experiment [3] (Table D1) and 304 nM in experiment [4] (Table D1).
For the compound `COc1ccccc1N1CCN(C(=O)COc2ccc3cc2CCc2cncc(c2)Nc2ncc(Cl)c(n2)N3)CC1` [Example D241, 6-Chloro-12-{2-[4-(2-methoxyphenyl)piperazin-1-yl]-2-oxoethoxy}-2,4,8,18,22-pentaazatetracyclo[14.3.1.1(3,7).1(9,13)]docosa-1(20),3(22),4,6,9(21),10,12,16,18-nonaene tris(trifluoroacetate)], the IC50 in experiment [1] (Table D1) is 41 nM; in experiment [2] (Table D1), 180 nM; in experiment [3] (Table D1), greater than 400 nM; in experiment [4] (Table D1), greater than 400 nM.
As to `CC(=O)N1CCC(COc2ccc3cc2CCc2cncc(c2)Nc2ncc(Cl)c(n2)N3)CC1` [Example D227, 12-[(1-Acetylpiperidin-4-yl)methoxy]-6-chloro-2,4,8,18,22-pentaazatetracyclo[14.3.1.1(3,7).1(9,13)]docosa-1(20),3(22),4,6,9(21),10,12,16,18-nonaene bis(trifluoroacetate)], the IC50 in experiment [1] (Table D1) is 72 nM; in experiment [2] (Table D1), 148 nM; in experiment [3] (Table D1), greater than 400 nM; in experiment [4] (Table D1), greater than 400 nM.
Turning to `O=C(NCc1ccco1)N1CCC(CCOc2ccc3cc2CCc2cncc(c2)Nc2ncc(Cl)c(n2)N3)CC1` [Example D165, 4-(2-{[6-Chloro-2,4,8,18,22-pentaazatetracyclo[14.3.1.1(3,7).1(9,13)]docosa-1(20),3(22),4,6,9(21),10,12,16,18-nonaen-12-yl]oxy}ethyl)-N-(2-furylmethyl)piperidine-1-carboxamide bis(trifluoroacetate)], the IC50 in experiment [1] (Table D1) is 52 nM; in experiment [2] (Table D1) it was 208 nM; in experiment [3] (Table D1), greater than 400 nM; in experiment [4] (Table D1) it was greater than 400 nM.

Source of the values: patent US8871753B2, “Macrocyclic compounds and their use as kinase inhibitors” (Incyte Corporation, priority 2008, dated 2014).
